Measured values as given in publication PMC10224356, “Trisubstituted 1,3,5-Triazines as Histamine H4 Receptor Antagonists with Promising Activity In Vivo” (Molecules, 2023).

Experiments:
hH4R = hH4R (Homo sapiens, UniProt Q9H3N8); test: cAMP accumulation assay (LANCE Ultra cAMP, CHO-K1 cells stably expressing hH4R); format: cell-based; set-up: expressed in transfected cells
H1R = H1R (Homo sapiens, UniProt P35367); test: Preliminary study at H1R
rats = test: Carrageenan-induced inflammatory pain and oedema; format: in vivo
Text: We wanted to confirm the activity in an additional model of inflammation in another species. To evaluate the influence of compound 6 on acute inflammation, such as oedema and hyperalgesia, we tested it in the carrageenan-induced inflammation model in rats. […] As oedema is one of the most significant symptoms of inflammation resulting from the release of inflammatory mediators, we may conclude that compound 6 has some anti-inflammatory activity. […] The response to mechanical stimuli was observed as the pain withdrawal threshold (Figure 8B) decreased from the value of 138.33 ± 1.05 g (baseline) before carrageenan injection to the value of 120.83 ± 2.0 g (87.3% of the baseline) 3 h after injection, 125.83 ± 2.51 (90.9% of the baseline) 6 h after injection, and 124.17 ± 2.0 (89.7% of the baseline). […] The results obtained confirmed its analgesic activity in mechanical inflammatory hyperalgesia. […] We claim that the effect may result from the inhibition of the release of inflammatory mediators and subsequent inhibition of peripheral and central sensitization. […] The effect was not as persistent as in the mechanical hyperalgesia and was observed only 1, 2 and 3 h after induction of inflammation.
The procedure used was described previously. Briefly, the inflammation and paw oedema was induced by subplantar injection of 0.1 mL of 1% carrageenan (made in PBS) into the right hind paw of the rat. The paw volume was measured by the dislocation of the water column of the plethysmometer (Plethysmometer 7140, Ugo Basile). The hyperalgesic response to mechanical stimuli was measured using Analgesy Meter 37215, Ugo Basile. The intensity of the applied force, in grams, was recorded when the paw was withdrawn (withdrawal threshold). Moreover, the hyperalgesic response to thermal stimuli was determined by using a plantar test apparatus (Commat Ltd., Ankara, Turkey). The latency to the heat stimulus was automatically recorded. Three subsequent applications of the heating stimulus were done, separated by 1- to 2-min intervals, and the mean of these measures was taken.
Figure 8 Effect of compound 6 on carrageenan-induced oedema (A), mechanical hyperalgesia (B) and thermal hyperalgesia (C) developed after subplantar injection of 1% carrageenan in rats. Data are expressed as means ± SEM for 5–6 animals. Time 0—the initial reaction considered as the nociceptive reaction before carrageenan administration. Statistical significance compared to vehicle-treated animals: * p < 0.05, ** p < 0.01, *** p < 0.001, **** p < 0.0001. Statistical analysis: two-way ANOVA post hoc Bonferroni test. Statistical significance compared to initial value (0 time point) in the vehicle-treated group: # p < 0.05, ## p < 0.01, ### p < 0.0001. Statistical analysis: one-way ANOVA followed by Dunnett’s post hoc test.

mice [1] = test: Chloroquine-induced pruritus; format: in vivo
Text: When comparing the activity of the tested in both used models, it should be noted that the efficacy (higher maximal effect) and potency (lower doses needed to obtain the same result) of the compound were better in histamine-induced pruritus. Nevertheless, compound 6 was also active in histamine-independent itch, which contrasts with the activity of pyrilamine representing a commonly used drug in the treatment of pruritus. […] The wide spectrum of antipruritic activity of compound 6 is very promising, considering that histamine-independent itch is still a crucial clinical problem in pruritus treatment.
(§1) The surface (around 2 cm^2) of the mice’s nape was shaved at least 2 days prior to experiments. On the day of the experiment, mice were individually placed in plastic chambers (15 × 15 × 30 cm) and after the 30 min habituation period, they were given an intradermal (i.d.) injection of histamine dihydrochloride (10 µmol/site) or chloroquine (CQ, 200 µg/site), which were dissolved in physiological saline and administrated in the constant volume of 20 μL. Immediately after the injection, scratching (series of movements considered as a single scratching bout) of the injected site by the hind paw was counted for 60 min or 30 min after histamine and CQ administration, respectively. Before pruritogens injection different groups of mice were treated i.p. with vehicle (10 mL/kg, negative control) or the dose–response of investigated compound.
(§2) Figure 9 The effect of compound 6 and reference compound pyrilamine (Pyr) on the number of scratching bouts during 60 min-long observation in histamine-induced pruritus (A) and 30 min-long observation in chloroquine-induced pruritus (B). The tested compound or vehicle (1% solution of Tween 80) was administered intraperitoneally (i.p.) 30 min before the intradermal (i.d.) injection of histamine or chloroquine. The results are presented as bar plots showing the mean ± SEM. Statistical analysis: one-way ANOVA followed by Dunnett’s post hoc test, * p < 0.05, ** p < 0.01, *** p < 0.001, n = 8–10 mice per group.

mice [2] = test: Histamine-induced pruritus; format: in vivo; conditions: 25 mg/kg i.p.
Description: Intradermal injection of histamine induced scratching bouts in the amount of 62.11 ± 9.4. […].
as §1, §2

hH4R, sequence (Q9H3N8 whole entry): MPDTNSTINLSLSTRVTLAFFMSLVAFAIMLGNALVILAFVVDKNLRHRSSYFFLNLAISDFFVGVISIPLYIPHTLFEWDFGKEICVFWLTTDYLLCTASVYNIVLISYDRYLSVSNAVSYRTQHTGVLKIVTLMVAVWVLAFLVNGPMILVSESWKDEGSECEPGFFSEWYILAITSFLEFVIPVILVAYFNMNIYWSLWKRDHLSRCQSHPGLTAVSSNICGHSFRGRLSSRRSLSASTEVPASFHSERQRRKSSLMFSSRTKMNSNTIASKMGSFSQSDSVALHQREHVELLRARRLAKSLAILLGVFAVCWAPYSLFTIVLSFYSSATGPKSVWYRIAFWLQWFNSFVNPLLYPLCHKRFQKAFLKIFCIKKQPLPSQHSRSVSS
H1R, sequence (P35367 whole entry, species assumed): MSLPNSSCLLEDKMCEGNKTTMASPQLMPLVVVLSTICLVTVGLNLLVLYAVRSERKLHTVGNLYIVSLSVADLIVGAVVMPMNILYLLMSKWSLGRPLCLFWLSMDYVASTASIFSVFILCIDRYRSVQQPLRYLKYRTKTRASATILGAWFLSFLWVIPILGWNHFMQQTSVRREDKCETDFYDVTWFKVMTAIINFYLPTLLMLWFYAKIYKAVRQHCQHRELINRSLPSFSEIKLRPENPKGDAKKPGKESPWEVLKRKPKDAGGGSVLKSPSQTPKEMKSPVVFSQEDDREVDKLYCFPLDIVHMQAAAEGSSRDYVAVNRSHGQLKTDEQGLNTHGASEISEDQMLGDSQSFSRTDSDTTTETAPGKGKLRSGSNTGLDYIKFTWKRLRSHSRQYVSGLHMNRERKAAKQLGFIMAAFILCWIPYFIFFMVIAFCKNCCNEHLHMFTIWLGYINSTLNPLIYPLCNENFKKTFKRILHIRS

## CN1CCN(c2nc(N)nc(CC3CCCC3)n2)CC1 [Compound 6, 4-(Cyclopentylmethyl)-6-(4-methylpiperazin-1-yl)-1,3,5-triazin-2-amine]
hH4R; antagonist mode, forskolin 10 µM, histamine 140 nM, CHO-K1 hH4R cells, read-out: cAMP hH4R IC50 ± SEM
  IC50: 10 ± 2 nM
hH4R; calculated from IC50 by Leff–Dougall variant of Cheng–Prusoff equation, read-out: pKb cAMP ± SEM (converted)
  Kb: 3.55 nM
H1R
  H1R activity at 10 µM: 0%
rats; 50 mg/kg, 3 h after carrageenan (vehicle 87.3%)
  Pain withdrawal threshold (mechanical hyperalgesia): 122.1 % of the baseline
rats; 50 mg/kg, 6 h after carrageenan (vehicle 90.9%)
  Pain withdrawal threshold (mechanical hyperalgesia): 119.5 % of the baseline
rats; 50 mg/kg, third time point (time not given, presumably 24 h; vehicle 89.7%)
  Pain withdrawal threshold (mechanical hyperalgesia): 111.7 % of the baseline
rats; 75 mg/kg, 1 h after carrageenan (vehicle 48.9%)
  Paw volume increase (carrageenan oedema): 22.1%
rats; 75 mg/kg, 1 h after inflammation induction (vehicle 62.44%)
  Paw withdrawal latency (thermal hyperalgesia): 129.5 % of baseline
rats; 75 mg/kg, 2 h after carrageenan (vehicle 79.3%)
  Paw volume increase (carrageenan oedema): 46.3%
rats; 75 mg/kg, 2 h after inflammation induction (vehicle 65.13%)
  Paw withdrawal latency (thermal hyperalgesia): 103.6 % of baseline
rats; 75 mg/kg, 3 h after carrageenan
  Pain withdrawal threshold (mechanical hyperalgesia): 107.5 % of the baseline
rats; 75 mg/kg, 3 h after carrageenan (vehicle 113.0%)
  Paw volume increase (carrageenan oedema): 72.6%
rats; 75 mg/kg, 3 h after inflammation induction (vehicle 45.63%)
  Paw withdrawal latency (thermal hyperalgesia): 86.3 % of baseline
rats; 75 mg/kg, 6 h after carrageenan
  Pain withdrawal threshold (mechanical hyperalgesia): 113.2 % of the baseline
rats; 75 mg/kg, 6 h after carrageenan (vehicle 115.2%)
  Paw volume increase (carrageenan oedema): 76.8%
rats; 75 mg/kg, 24 h after carrageenan (vehicle 114.1%)
  Paw volume increase (carrageenan oedema): 55.8%
rats; 75 mg/kg, third time point (time not given, presumably 24 h)
  Pain withdrawal threshold (mechanical hyperalgesia): 113.8 % of the baseline
Mice [1]; 50 mg/kg i.p., 30 min observation
  Scratch bouts, chloroquine-induced pruritus, % of the control value: 25.12 % of the control value
Mice [1]; 50 mg/kg i.p., 30 min observation (control 72.20 ± 11.59)
  Number of scratch bouts, chloroquine-induced pruritus: 18.14 ± 3.48 scratch bouts
Mice [1]; doses 25 mg/kg and 50 mg/kg i.p.
  Effect on number of scratch bouts, chloroquine-induced pruritus: significantly decreased the number of scratch bouts
Mice [1]; doses of 6.25 mg/kg and 12.5 mg/kg i.p.
  Effect on number of scratch bouts, chloroquine-induced pruritus: not statistically significant
Mice [2]; 60 min observation
  Scratch bouts, histamine-induced pruritus, % of the control value: 13.47 % of the control value
Mice [2]; 60 min observation (control 62.11 ± 9.4)
  Number of scratch bouts, histamine-induced pruritus: 8.37 ± 1.96 scratch bouts
